Tested on: FGF19
Assay: Expression of FGF19 mRNA in HT29 cells by RT-qPCR
Type: cell-based, human
Conditions: 6 h; for increase of expression of the FGF19 gene compared to control (carrier=DMSO): Example 5, HT29 cells; for increase of expression of the FGF19 gene compared with control (carrier=DMSO): Example 6, HT29 cells
From the text: For cell cultures, the HT29 (ECACC 91072201), HT29-MTX and Caco-2 lines derived from a human colorectal adenocarcinoma are used, conventionally used as cell lines representative of human enterocytes. The cells are systematically cultured in Dulbecco's Modified Eagle Medium (DMEM): 4.5 g/L of glucose supplemented with 1% of sodium pyruvate, 1% of penicillin-streptomycin and 10% of decomposed fetal-bovine serum (FBS) (Eurobio, Les Ulis, France). For the 12-well and 96-well plate experiments, the HT29 cells were seeded with a density of 7.5×10^4 cells/cm^2 with a medium changed every 2 days and the cells were exposed to different experimental conditions 2 days after confluence with a depleted complete medium in FBS. For the 12-well plates (Costar®, Cambridge, MA), Caco-2 and HT29-MTX cells were seeded in a ratio of 1:1 with a density of 2.5×10^4 cells/cm^2. The cells were cultured for 14 days in a complete medium to allow differentiation. The medium was changed in the two compartments every two days until exposure to the complete medium was depleted in the FBS. The integrity of the cellular monolayer was evaluated by measuring the transepithelial electrical resistance (TEER) using a Millicell-ERS (Millipore Corp., Billerica, MA). The cell culture was sourced from Dutscher (Issy-les-Moulineaux, France), unless specified otherwise.
The various conditions of the carrier as PD were dissolved in PBS and the agonists were dissolved in DMSO. After exposure, the cell supernatants were stored at −80° C. for the measurements of the secretion of FGF19 proteins, and the cell monolayers were maintained at −80° C. until total extraction of the RNA.
The effect of this exposure is measured by quantifying the messenger RNA of the FGF19 using the following protocol: the expression of the target genes was evaluated by quantifying their mRNA level in the cells by RT-qPCR. The total RNA was isolated using the TRI-Reagent solution (Sigma Aldrich). First-strand complementary DNA was synthesized from 1 μg of total RNA using the TAKARA Prime ScriptMC RT reagent kit (TAKARA Bio, Saint-Germain-en-Laye, France). The qPCR tests were carried out using the SYBR® Premix Ex-Taq™ kit (TAKARA Bio) on Rotor-Gene™ 6000 (Corbet Research, Mortlake, Australia). The mRNA levels of the human TATA binding protein (TBP) were used to normalize the data.
[FIG. 1] summarizes the results obtained. The HT29 cells were exposed to the various PDs alone or in combination with an FXR agonist to determine their potential capacity to increase the expression of the FGF19 gene. […]
The capacity of the RQ3 and RQ7 digestates to increase the level of expression of the FGF19 mRNA and also the production and secretion of proteins was then evaluated. […]

CC(C)c1onc(-c2c(Cl)cccc2Cl)c1COc1ccc(C=Cc2cccc(C(=O)O)c2)c(Cl)c1 [GW4064, 3-(2,6-Dichlorophenyl)-4-(3′-carboxy-2-chlorostilben-4-yl)oxymethyl-5-isopropylisoxazole]
increase of expression of the FGF19 gene compared to control (carrier=DMSO) (GW4064 0.1 μM alone): 2 times | increase of expression of the FGF19 gene compared to control (carrier=DMSO) (GW4064 1 μM alone): 6.2 times | increase of expression of the FGF19 gene compared with control (carrier=DMSO) (GW4064 0.1 μM alone): 2.3 times | increase of expression of the FGF19 gene compared with control (carrier=DMSO) (GW4064 1 μM alone): 6.6 times

Reference: patent US20240335497A1, “PULSE PROTEIN-BASED COMPOSITION FOR ACTIVATING THE SYNTHESIS OF FGF19” (ROQUETTE FRERES, priority 2021, published 2024)
